The record followed here is US8338608B2, “Inhibitors of ion channels” (Icagen Inc., priority 2005, dated 2012).

Molecules are shown by their SMILES. Read-outs that look alike come from different tables or passages of the source.

In the assay the target is T1, hSCN3A (Homo sapiens, UniProt Q9NY46).
T1 construct: expressed in transfected cells
The assay can be described thus: SCN3A inhibitory activity in HEK cells stably expressing hSCN3A (whole-cell patch clamp / radiotracer efflux HTS). It counts as cell-based. (In general: In patch-clamp work, channel activity is measured electrically.)

The mark [1] stands for this setting: HEK cells stably transfected with hSCN3A, read-out: SCN3A Inhibitory Activity.

T1 sequence (Q9NY46 whole entry): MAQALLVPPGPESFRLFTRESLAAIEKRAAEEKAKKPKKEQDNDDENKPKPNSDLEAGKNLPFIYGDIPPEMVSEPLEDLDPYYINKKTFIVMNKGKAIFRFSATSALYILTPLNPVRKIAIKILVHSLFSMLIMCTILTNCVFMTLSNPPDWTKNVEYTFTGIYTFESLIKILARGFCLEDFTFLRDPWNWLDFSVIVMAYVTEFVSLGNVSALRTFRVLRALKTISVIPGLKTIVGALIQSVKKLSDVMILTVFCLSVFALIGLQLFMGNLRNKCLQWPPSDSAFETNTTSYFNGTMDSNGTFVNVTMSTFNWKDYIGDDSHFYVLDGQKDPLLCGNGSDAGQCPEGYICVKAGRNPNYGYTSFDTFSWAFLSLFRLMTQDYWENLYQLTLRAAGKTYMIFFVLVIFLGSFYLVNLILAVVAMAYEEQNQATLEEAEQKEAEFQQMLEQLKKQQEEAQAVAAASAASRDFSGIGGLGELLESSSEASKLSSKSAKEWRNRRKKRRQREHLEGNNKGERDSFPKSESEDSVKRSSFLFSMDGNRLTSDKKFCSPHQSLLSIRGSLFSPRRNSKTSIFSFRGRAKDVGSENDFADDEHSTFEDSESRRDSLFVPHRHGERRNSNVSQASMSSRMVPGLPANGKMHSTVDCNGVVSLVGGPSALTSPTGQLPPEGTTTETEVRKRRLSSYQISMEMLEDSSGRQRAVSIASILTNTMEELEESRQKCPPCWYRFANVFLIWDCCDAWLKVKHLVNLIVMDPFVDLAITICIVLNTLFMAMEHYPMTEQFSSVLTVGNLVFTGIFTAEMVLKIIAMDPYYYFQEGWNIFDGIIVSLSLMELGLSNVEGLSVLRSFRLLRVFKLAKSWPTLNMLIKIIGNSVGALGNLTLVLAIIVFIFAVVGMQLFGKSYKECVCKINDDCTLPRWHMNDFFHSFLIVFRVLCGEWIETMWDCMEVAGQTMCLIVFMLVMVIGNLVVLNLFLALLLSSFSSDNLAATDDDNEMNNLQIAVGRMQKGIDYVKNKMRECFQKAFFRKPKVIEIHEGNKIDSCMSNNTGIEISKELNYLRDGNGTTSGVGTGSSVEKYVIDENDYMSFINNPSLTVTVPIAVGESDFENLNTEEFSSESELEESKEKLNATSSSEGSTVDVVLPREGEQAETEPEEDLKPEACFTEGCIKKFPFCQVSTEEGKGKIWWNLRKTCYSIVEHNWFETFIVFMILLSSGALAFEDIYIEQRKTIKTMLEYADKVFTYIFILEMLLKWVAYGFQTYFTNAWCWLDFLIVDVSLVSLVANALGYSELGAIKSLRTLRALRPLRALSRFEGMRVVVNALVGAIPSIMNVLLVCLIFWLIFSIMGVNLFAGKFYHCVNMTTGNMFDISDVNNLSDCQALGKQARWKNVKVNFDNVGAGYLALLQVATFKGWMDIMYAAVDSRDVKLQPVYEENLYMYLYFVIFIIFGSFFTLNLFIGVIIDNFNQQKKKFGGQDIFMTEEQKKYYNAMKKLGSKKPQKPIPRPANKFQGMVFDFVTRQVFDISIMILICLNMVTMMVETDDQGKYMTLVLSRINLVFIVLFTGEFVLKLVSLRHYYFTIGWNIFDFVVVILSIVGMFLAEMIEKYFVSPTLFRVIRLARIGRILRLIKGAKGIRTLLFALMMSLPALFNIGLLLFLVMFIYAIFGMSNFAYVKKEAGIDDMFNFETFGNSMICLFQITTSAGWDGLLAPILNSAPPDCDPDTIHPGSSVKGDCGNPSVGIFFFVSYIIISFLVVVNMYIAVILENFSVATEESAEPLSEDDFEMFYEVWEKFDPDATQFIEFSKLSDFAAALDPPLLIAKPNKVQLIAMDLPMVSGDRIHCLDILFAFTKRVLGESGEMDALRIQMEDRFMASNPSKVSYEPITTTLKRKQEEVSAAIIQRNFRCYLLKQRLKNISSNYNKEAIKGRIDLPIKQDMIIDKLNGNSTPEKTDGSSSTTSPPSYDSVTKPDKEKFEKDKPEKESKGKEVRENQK

As for `O=S(=O)(Nc1ccc(S(=O)(=O)Nc2nccs2)cc1)N[C@@H]1C[C@H]1c1ccccc1` (relative stereo) [Compound 4, N-(trans-2-phenylcyclopropyl)-N′-[4-(N-thiazol-2-yl-sulfonamyl)-phenyl]-sulfamide], under setting [1], the IC50 was under 100 nM.
On the same count and under the same terms, as for `O=S(=O)(NCC(c1ccccc1)c1ccccc1)Nc1ccc(S(=O)(=O)Nc2nccs2)cc1` [Compound 1], the figure is under 100 nM; as for `O=S(=O)(NCCC(c1ccccc1)c1ccccc1)Nc1ccc(S(=O)(=O)Nc2nccs2)cc1` [Compound 2, N-(3,3-diphenylpropyl]-N′-[4-(N-thiazol-2-yl-sulfonamyl)-phenyl]-sulfamide], under 100 nM.
Take `O=S(=O)(NCCc1ccc(Cl)c(Cl)c1)Nc1ccc(S(=O)(=O)Nc2nccs2)cc1` [Compound 3]: under setting [1], the IC50 is under 100 nM.
Regarding `O=S(=O)(NCCc1ccc(Oc2ccccc2)cc1)Nc1ccc(S(=O)(=O)Nc2nccs2)cc1` [Compound 5, N-[2-(4-phenoxyl-phenyl)-ethyl]-N′-[4-(N-thiazol-2-yl-sulfonamyl)-phenyl]-sulfamide], the IC50 under setting [1] was under 100 nM.
Same read-out and setting: under `CC(C)(C)c1ccc(OCCNS(=O)(=O)c2ccc(S(=O)(=O)Nc3ncc(Cl)s3)cc2)cc1` [Compound 6, Benzene-1,4-disulfonic acid 1-{[2-(4-tert-butyl-phenoxy)-ethyl]-amide} 4-[(5-chloro-thiazol-2-yl)-amide]] stands under 100 nM; under `CC(C)(C)CCNS(=O)(=O)c1ccc(S(=O)(=O)Nc2ncc(Cl)s2)cc1` [Compound 7, Benzene-1,4-disulfonic acid 1-[(5-chloro-thiazol-2-yl)-amide] 4-[(3,3-dimethyl-butyl)-amide]], under 100 nM.
As for `O=S(=O)(Nc1nccs1)c1ccc(S(=O)(=O)N2CCC(Oc3cccc(Cl)c3)CC2)cc1` [Compound 8, 4-[4-(3-Chloro-phenoxy)-piperidine-1-sulfonyl]-N-thiazol-2-yl-benzenesulfonamide], the IC50 under setting [1] is under 100 nM.
Same read-out and setting: under `O=S(=O)(NCC1COc2cc(Cl)c(Cl)cc2O1)c1ccc(S(=O)(=O)Nc2nccs2)cc1` (stereo not drawn) [Compound 9, Benzene-1,4-disulfonic acid 1-[(6,7-dichloro-2,3-dihydro-benzo[1,4]dioxin-2-ylmethyl)-amide] 4-thiazol-2-ylamide] stands under 100 nM; under `O=S(=O)(Nc1ncc(Cl)s1)c1ccc(S(=O)(=O)N2CCN(c3ccc(Cl)cc3F)CC2)cc1` [Compound 10, 4-[4-(4-Chloro-2-fluoro-phenyl)-piperazine-1-sulfonyl]-N-(5-chloro-thiazol-2-yl)-benzenesulfonamide], under 100 nM; under `CC(C)(C)c1ccc(CNS(=O)(=O)c2ccc(S(=O)(=O)Nc3nccs3)cc2)cc1` [Compound 11, Benzene-1,4-disulfonic acid 1-(4-tert-butyl-benzylamide) 4-thiazol-2-ylamide], under 100 nM.
On to `O=S(=O)(NCCCOc1ccc(Cl)cc1)c1ccc(S(=O)(=O)Nc2ncc(Cl)s2)cc1` [Compound 12, Benzene-1,4-disulfonic acid 1-{[3-(4-chloro-phenoxy)-propyl]-amide} 4-[(5-chloro-thiazol-2-yl)-amide]], for which the IC50 under setting [1] was under 100 nM.
Regarding `CN(CCNS(=O)(=O)c1ccc(S(=O)(=O)Nc2nccs2)cc1)c1ccc(Cl)cc1` [Compound 13, Benzene-1,4-disulfonic acid 1-({2-[(4-chloro-phenyl)-methyl-amino]-ethyl}-amide) 4-thiazol-2-ylamide], the IC50 under setting [1] was under 100 nM.
Still for that read-out and setting: as for `CC(C)(CNS(=O)(=O)c1ccc(S(=O)(=O)Nc2ncc(Cl)s2)cc1)Oc1ccc(C(C)(C)C)cc1` [Compound 14, Benzene-1,4-disulfonic acid 1-{[2-(4-tert-butyl-phenoxy)-2-methyl-propyl]-amide} 4-[(5-chloro-thiazol-2-yl)-amide]], the figure is under 100 nM; as for `O=S(=O)(NCc1ccc(C(F)(F)F)cc1)c1ccc(S(=O)(=O)Nc2ncc(Cl)s2)cc1` [Compound 15, Benzene-1,4-disulfonic acid 1-[(5-chloro-thiazol-2-yl)-amide] 4-(4-trifluoromethyl-benzylamide)], under 100 nM; as for `CC(C)(C)c1ccc(NCCNS(=O)(=O)c2ccc(S(=O)(=O)Nc3nccs3)cc2)cc1` [Compound 16, Benzene-1,4-disulfonic acid 1-{[2-(4-tert-butyl-phenylamino)-ethyl]-amide} 4-thiazol-2-ylamide], under 100 nM.
Same read-out and setting: under `O=S(=O)(NCC1(Oc2ccc(Cl)cc2)CCC1)c1ccc(S(=O)(=O)Nc2nccs2)cc1` [Compound 17, Benzene-1,4-disulfonic acid 1-{[1-(4-chloro-phenoxy)-cyclobutylmethyl]-amide} 4-thiazol-2-ylamide] stands under 100 nM; under `Cc1cc(OCCNS(=O)(=O)c2ccc(S(=O)(=O)Nc3nccs3)cc2)ccc1Cl` [Compound 18, Benzene-1,4-disulfonic acid 1-{[2-(4-chloro-3-methyl-phenoxy)-ethyl]-amide} 4-thiazol-2-ylamide], under 100 nM; under `O=S(=O)(Nc1nccs1)c1ccc(S(=O)(=O)N2CCC[C@H]2COc2ccc(Cl)cc2)cc1` [Compound 19, 4-[(S)-2-(4-chloro-phenoxymethyl)-pyrrolidine-1-sulfonyl]-N-thiazol-2-yl-benzenesulfonamide], under 100 nM.
`O=S(=O)(NCC1(Oc2ccc(Cl)cc2F)CCC1)c1ccc(S(=O)(=O)Nc2nccs2)cc1` [Compound 20, Benzene-1,4-disulfonic acid 1-{[1-(4-chloro-2-fluoro-phenoxy)-cyclobutylmethyl]-amide} 4-thiazol-2-ylamide]: the IC50 under setting [1] is under 100 nM.
The same measure, in the same setting: as for `O=S(=O)(NCC1(c2ccc(Cl)cc2)CCC1)c1ccc(S(=O)(=O)Nc2nccs2)cc1` [Compound 21, Benzene-1,4-disulfonic acid 1-{[1-(4-chloro-phenyl)-cyclobutylmethyl]-amide} 4-thiazol-2-ylamide], the figure is under 100 nM; as for `O=S(=O)(NCCC(c1ccccc1)c1ccccc1)Nc1ccc(S(=O)(=O)Nc2nccs2)nc1` [Compound 22], 100 to 500 nM; as for `O=S(=O)(Nc1nccs1)c1ccc(NS(=O)(=O)N2CCN(c3ccc(Cl)c(Cl)c3)CC2)cc1` [Compound 23, 4-(3,4-Dichloro-phenyl)-piperazine-1-sulfonic acid [4-(thiazol-2-ylsulfamoyl)-phenyl]-amide], 100 to 500 nM.
The same measure, in the same setting: as for `O=S(=O)(NCC(c1ccccc1)c1ccccc1)c1ccc(S(=O)(=O)Nc2nccs2)cc1` [Compound 24, Benzene-1,4-disulfonic acid 1-[(2,2-diphenyl-ethyl)-amide] 4-thiazol-2-ylamide], the figure is 100 to 500 nM; as for `O=S(=O)(NCCc1ccc(Cl)c(Cl)c1)c1cc(F)c(S(=O)(=O)Nc2nccs2)cc1F` [Compound 25, 2,5-Difluoro-benzene-1,4-disulfonic acid 1-{[2-(3,4-dichloro-phenyl)-ethyl]-amide} 4-thiazol-2-ylamide], 100 to 500 nM.
Take `O=S(=O)(Nc1ncc(Cl)s1)c1ccc(S(=O)(=O)N2CC(Oc3ncc(C(F)(F)F)cc3Cl)C2)cc1` [Compound 26, N-(5-chloro-thiazol-2-yl)-4-[3-(3-chloro-5-trifluoromethyl-pyridin-2-yloxy)-azetidine-1-sulfonyl]-benzenesulfonamide]: the IC50 under setting [1] lay in the range of 100 to 500 nM.
The same measure, in the same setting: as for `O=S(=O)(NCCc1ccc(Cl)cc1)c1ccc(S(=O)(=O)Nc2nccs2)cc1` [Compound 27, Benzene-1,4-disulfonic acid 1-{[2-(4-chloro-phenyl)-ethyl]-amide} 4-thiazol-2-ylamide], the figure is 100 to 500 nM; as for `O=S(=O)(Nc1ncc(Cl)s1)c1ccc(S(=O)(=O)N2CC(=Cc3ccc(Cl)c(Cl)c3)C2)cc1` [Compound 28, N-(5-chloro-thiazol-2-yl)-4-[3-(3,4-dichloro-benzylidene)-azetidine-1-sulfonyl]-benzenesulfonamide], 100 to 500 nM; as for `O=S(=O)(Nc1nccs1)c1ccc(S(=O)(=O)N2CCC(Cc3ccc(Cl)cc3)CC2)cc1` [Compound 29, 4-[4-(4-Chloro-benzyl)-piperidine-1-sulfonyl]-N-thiazol-2-yl-benzenesulfonamide], 100 to 500 nM.
`O=S(=O)(Nc1nccs1)c1ccc(S(=O)(=O)NC2CCCCCC2)cc1` [Compound 30, Benzene-1,4-disulfonic acid 1-cycloheptylamide 4-thiazol-2-ylamide]: under setting [1], the IC50 is 100 to 500 nM.
Same read-out and setting: under `CC(C)(CNS(=O)(=O)c1ccc(S(=O)(=O)Nc2nccs2)cc1)Nc1ccc(C(C)(C)C)cc1` [Compound 31, Benzene-1,4-disulfonic acid 1-{[2-(4-tert-butyl-phenylamino)-2-methyl-propyl]-amide} 4-thiazol-2-ylamide] stands 100 to 500 nM; under `C[C@H](CNS(=O)(=O)c1ccc(S(=O)(=O)Nc2ncc(Cl)s2)cc1)Oc1ccc(Cl)cc1` [Compound 32, Benzene-1,4-disulfonic acid 1-{[(R)-2-(4-chloro-phenoxy)-propyl]-amide} 4-[(5-chloro-thiazol-2-yl)-amide]], 100 to 500 nM.
For `C[C@@H](CNS(=O)(=O)c1ccc(S(=O)(=O)Nc2ncc(Cl)s2)cc1)Oc1ccc(Cl)cc1` [Compound 33, Benzene-1,4-disulfonic acid 1-{[(S)-2-(4-chloro-phenoxy)-propyl]-amide} 4-[(5-chloro-thiazol-2-yl)-amide]], under setting [1], the IC50 lay within 100 to 500 nM.
For the compound `O=S(=O)(NCCOc1ccc(Cl)cc1F)c1ccc(S(=O)(=O)Nc2nccs2)cc1` [Compound 34, Benzene-1,4-disulfonic acid 1-{[2-(4-chloro-2-fluoro-phenoxy)-ethyl]-amide} 4-thiazol-2-ylamide], the IC50 under setting [1] is 100 to 500 nM.
Same read-out and setting: as for `CN(CCOc1ccc(C(C)(C)C)cc1)S(=O)(=O)c1ccc(S(=O)(=O)Nc2nccs2)cc1` [Compound 35, Benzene-1,4-disulfonic acid 1-{[2-(4-tert-butyl-phenoxy)-ethyl]-methyl-amide} 4-thiazol-2-ylamide], the figure is 100 to 500 nM.
On to `O=S(=O)(Nc1nccs1)c1ccc(S(=O)(=O)N2CC(COc3cccc(Cl)c3)C2)cc1` [Compound 36, 4-[3-(3-Chloro-phenoxymethyl)-azetidine-1-sulfonyl]-N-thiazol-2-yl-benzenesulfonamide], for which the IC50 was in the range of 100 to 500 nM.
